Experimental data taken from patent US20020137929A1, “1 - (3-heterocyclylphenyl) isothiourea, -isourea, -guanidine and -amidine herbicidal agents” (Intellectual Property Department, BASF Aktiengesellschaft, priority 1998, published 2002).

Columns and labels:
[1] = system: SAGPY (Arrowhead (Pygmaea)); experiment: Postemergence weed control under flooded paddy conditions; format: in vivo, Sagittaria pygmaea; conditions: postemergence weeds, 3-4 weeks after treatment
Excerpt: Results of herbicide evaluation are expressed on a rating scale (0-9). The scale is based upon a visual observation of plant stand, vigor, malformation, size, chlorosis and overall plant appearance as compared with a control.
Plastic containers containing weeds which are 3 to 5 cm tall and rice seedlings at the 1.5 to 2.5 leaf stage are flooded with water. The water is maintained at 1.5 to 3 cm above the soil surface for the duration of the experiment. Test compounds are applied as aqueous/ acetone mixtures 50/50 v/v directly into the flood water to provide the equivalent of about 0.0313 to 0.500 kg/ha of active ingredient. The treated containers are placed on greenhouse benches and cared for in accordance with conventional greenhouse procedures. Three to four weeks after treatment, the test is terminated and each container is examined and herbicidal effect rated according to the rating system provided in Example 37. The compounds evaluated are reported by compound number given in Example 37.

AMBEL (Ragweed, Common) = experiment: Postemergence herbicidal evaluation; format: in vivo, Ambrosia artemisifolia; conditions: postemergence
Summary of the method: (§1)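 ~2-wk seedlings; postemergence spray, 40 psi; vehicle 1:1 acetone:water + 0.5% Tween 20; rate ≈0.0156–0.500 kg/ha; greenhouse hold; scored 4–5 wk after treatment, 0–9 scale vs control; repeat tests averaged.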

SETVI (Foxtail, Green) = experiment: Preemergence herbicidal evaluation; format: in vivo, Setaria viridis; conditions: rated 4-5 weeks after treatment
Summary of the method: (§2)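 Seeds were planted in potting soil in cups, then sprayed preemergence with the test compound in aqueous acetone at about 0.0156 to 0.500 kg per hectare. Cups were kept under greenhouse conditions and visually rated 4–5 weeks after treatment on a 0–9 scale against an untreated control.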

[2] = system: SAGPY (Arrowhead (Pygmaea)); experiment: Preemergence weed control under flooded paddy conditions; format: in vivo, Sagittaria pygmaea; conditions: rated 3-4 weeks after treatment
Summary of the method: (§3)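 Visual injury scored 0-9 against control three to four weeks post-treatment, greenhouse-grown. Application: acetone/water (50/50) solutions dosed directly into flood water (1.5-3 cm over silt loam, planted top 0.5 cm), roughly 0.0313 to 0.500 kg/ha active ingredient.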

[3] = system: ECHORC (Watergrass (Calif.)); experiment: as above; format: in vivo, Echinochloa oryzoides; conditions: rated 3-4 weeks after treatment
Summary of the method: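 Flooded-pot preemergence screen with silt loam and seeds in the upper 0.5 cm. Dose about 0.0313 to 0.500 kg/ha, delivered into flood water; visual 0-9 score after 3 to 4 weeks.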

ORYSAT (Rice, Tebonnet) = experiment: Preemergence herbicidal evaluation; format: in vivo, Oryza sativa, (L.) Tebonnet; conditions: rated 4-5 weeks after treatment
Summary of the method: as §2

[4] = system: ECHORC (Watergrass (Calif.)); experiment: Postemergence weed control under flooded paddy conditions; format: in vivo, Echinochloa oryzoides; conditions: postemergence weeds, 3-4 weeks after treatment
Summary of the method: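 Containers holding 3–5 cm weeds and rice at 1.5–2.5 leaves are flooded to 1.5–3 cm above soil. Compound in 50/50 v/v aqueous/acetone is then added directly to the water, about 0.0313–0.500 kg/ha. Plants are kept in the greenhouse and rated 0–9 visually at 3–4 weeks.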

GALAP (Galium) [5] = experiment: Postemergence herbicidal evaluation; format: in vivo, Galium aparine; conditions: postemergence
Summary of the method: as §1

[6] = system: GLXMAW (Soybean, Williams); experiment: Postemergence herbicidal evaluation; format: in vivo, Glycine max, (L.) Merr. cv Williams; conditions: postemergence
Summary of the method: as §1

GALAP (Galium) [7] = experiment: Preemergence herbicidal evaluation; format: in vivo, Galium aparine; conditions: rated 4-5 weeks after treatment
Summary of the method: as §2

MOOVA (Monochoria) = experiment: Preemergence weed control under flooded paddy conditions; format: in vivo, Monochoria vaginalis; conditions: rated 3-4 weeks after treatment
Summary of the method: as §3

[8] = system: TRZAWR (Wheat, Winter, cv Riband); experiment: Postemergence herbicidal evaluation; format: in vivo, Triticum aestivum; conditions: postemergence
Summary of the method: as §1

CASOB (Sicklepod) = experiment: Postemergence herbicidal evaluation; format: in vivo, Cassia obtusifolia; conditions: postemergence
Summary of the method: as §1

For `CCOC(=O)CN1C(=O)C(Cc2ccccc2)SC1=Nc1cc(-n2c(=O)cc(C(F)(F)F)n(C)c2=O)c(F)cc1Cl` (stereo not shown) [Compound 24, Ethyl 5-benzyl-2-{{2-chloro-5-[3,6-dihydro-3-methyl-2,6-dioxo-4-(trifluoromethyl)-1(2H)-pyrimidinyl]-4-fluorophenyl}imino}-4-oxo-3-thiazolidineacetate], the “Herbicidal rating SAGPY” value ([1]; rate 0.0313 kg/ha) was 0.0, the “Herbicidal rating SAGPY” value ([1]; rate 0.0625 kg/ha) was 0.0 and the “Herbicidal rating SAGPY” value ([1]; rate 0.1250 kg/ha) was 0.0. For the same compound, the “Herbicidal rating SAGPY” value ([1]; rate 0.2500 kg/ha) was 0.0, the AMBEL herbicidal rating (AMBEL (Ragweed, Common); rate 0.0158 kg/ha) was 2.0 and the AMBEL herbicidal rating (AMBEL (Ragweed, Common); rate 0.0315 kg/ha) was 3.0. For the same compound, the AMBEL herbicidal rating (AMBEL (Ragweed, Common); rate 0.0630 kg/ha) was 9.0, the “SETVI preemergence herbicidal rating” value (SETVI (Foxtail, Green); rate 0.0625 kg/ha) was 0.0 and the “SETVI preemergence herbicidal rating” value (SETVI (Foxtail, Green); rate 0.1250 kg/ha) was 0.0. For the same compound, the “SETVI preemergence herbicidal rating” value (SETVI (Foxtail, Green); rate 0.2500 kg/ha) was 1.0, the “Herbicidal rating SAGPY” value ([2]; 0.0313 kg/ha) was 0.0 and the “Herbicidal rating SAGPY” value ([2]; 0.0625 kg/ha) was 0.0. For the same compound, the “Herbicidal rating SAGPY” value ([2]; 0.1250 kg/ha) was 0.0, the “Herbicidal rating SAGPY” value ([2]; 0.2500 kg/ha) was 0.0 and the “Herbicidal rating ECHORC” value ([3]; 0.0313 kg/ha) was 4.0. The “Herbicidal rating ECHORC” value ([3]; 0.0625 kg/ha) was 9.0, the “Herbicidal rating ECHORC” value ([3]; 0.1250 kg/ha) was 9.0 and the “Herbicidal rating ECHORC” value ([3]; 0.2500 kg/ha) was 9.0. The “ORYSAT preemergence herbicidal rating” value (ORYSAT (Rice, Tebonnet); rate 0.0625 kg/ha) was 0.0, the “ORYSAT preemergence herbicidal rating” value (ORYSAT (Rice, Tebonnet); rate 0.1250 kg/ha) was 0.0 and the “ORYSAT preemergence herbicidal rating” value (ORYSAT (Rice, Tebonnet); rate 0.2500 kg/ha) was 0.0. For the same compound, the “Herbicidal rating ECHORC” value ([4]; rate 0.0313 kg/ha) was 4.0, the “Herbicidal rating ECHORC” value ([4]; rate 0.0625 kg/ha) was 9.0 and the “Herbicidal rating ECHORC” value ([4]; rate 0.1250 kg/ha) was 9.0. The “Herbicidal rating ECHORC” value ([4]; rate 0.2500 kg/ha) was 9.0, the GALAP herbicidal rating (GALAP (Galium) [5]; rate 0.0158 kg/ha) was 1.0 and the GALAP herbicidal rating (GALAP (Galium) [5]; rate 0.0315 kg/ha) was 4.0. It also gave a GALAP herbicidal rating (GALAP (Galium) [5]; rate 0.0630 kg/ha) of 6.0, a GLXMAW herbicidal rating ([6]; rate 0.0158 kg/ha) of 4.0 and a GLXMAW herbicidal rating ([6]; rate 0.0315 kg/ha) of 5.0. For the same compound, the GLXMAW herbicidal rating ([6]; rate 0.0630 kg/ha) was 5.5, the “GALAP preemergence herbicidal rating” value (GALAP (Galium) [7]; rate 0.0625 kg/ha) was 0.0 and the “GALAP preemergence herbicidal rating” value (GALAP (Galium) [7]; rate 0.1250 kg/ha) was 0.0. The “GALAP preemergence herbicidal rating” value (GALAP (Galium) [7]; rate 0.2500 kg/ha) was 4.0, the “Herbicidal rating MOOVA” value (MOOVA (Monochoria); 0.0313 kg/ha) was 0.0 and the “Herbicidal rating MOOVA” value (MOOVA (Monochoria); 0.0625 kg/ha) was 9.0. For the same compound, the “Herbicidal rating MOOVA” value (MOOVA (Monochoria); 0.1250 kg/ha) was 9.0, the “Herbicidal rating MOOVA” value (MOOVA (Monochoria); 0.2500 kg/ha) was 9.0 and the TRZAWR herbicidal rating ([8]; rate 0.0158 kg/ha) was 3.5. The TRZAWR herbicidal rating ([8]; rate 0.0315 kg/ha) was 3.5, the TRZAWR herbicidal rating ([8]; rate 0.0630 kg/ha) was 3.5 and the CASOB herbicidal rating (CASOB (Sicklepod); rate 0.0158 kg/ha) was 0.0. It also gave a CASOB herbicidal rating (CASOB (Sicklepod); rate 0.0315 kg/ha) of 0.0 and a CASOB herbicidal rating (CASOB (Sicklepod); rate 0.0630 kg/ha) of 0.0.
In the case of `CCOC(=O)CN1C(=O)CN(C)C1=Nc1cc(-n2c(=O)cc(C(F)(F)F)n(C)c2=O)c(F)cc1Cl` [Compound 25, Ethyl 2-{{2-chloro-5-[3,6-dihydro-3-methyl-2,6-dioxo-4-(trifluoromethyl)-1(2H)-pyrimidinyl]-4-fluorophenyl}imino}-3-methyl-5-oxo-1-imidazolidineacetate], the “Herbicidal rating SAGPY” value ([1]; rate 0.0313 kg/ha) is reported as 0.0, the “Herbicidal rating SAGPY” value ([1]; rate 0.0625 kg/ha) is reported as 0.0 and the “Herbicidal rating SAGPY” value ([1]; rate 0.1250 kg/ha) is reported as 5.0. For the same compound, the “Herbicidal rating SAGPY” value ([1]; rate 0.2500 kg/ha) was 5.0, the AMBEL herbicidal rating (AMBEL (Ragweed, Common); rate 0.0156 kg/ha) was 3.0 and the AMBEL herbicidal rating (AMBEL (Ragweed, Common); rate 0.0313 kg/ha) was 4.0. The AMBEL herbicidal rating (AMBEL (Ragweed, Common); rate 0.0625 kg/ha) was 9.0, the “Preemergence herbicidal rating SETVI” value (SETVI (Foxtail, Green); rate 0.0156 kg/ha) was 0.0 and the “Preemergence herbicidal rating SETVI” value (SETVI (Foxtail, Green); rate 0.0313 kg/ha) was 0.0. The “SETVI preemergence herbicidal rating” value (SETVI (Foxtail, Green); rate 0.0625 kg/ha) was 7.0, the “SETVI preemergence herbicidal rating” value (SETVI (Foxtail, Green); rate 0.1250 kg/ha) was 9.0 and the “SETVI preemergence herbicidal rating” value (SETVI (Foxtail, Green); rate 0.2500 kg/ha) was 9.0. For the same compound, the “Herbicidal rating SAGPY” value ([2]; 0.0313 kg/ha) was 0.0, the “Herbicidal rating SAGPY” value ([2]; 0.0625 kg/ha) was 0.0 and the “Herbicidal rating SAGPY” value ([2]; 0.1250 kg/ha) was 5.0. For the same compound, the “Herbicidal rating SAGPY” value ([2]; 0.2500 kg/ha) was 5.0, the “Herbicidal rating ECHORC” value ([3]; 0.0313 kg/ha) was 4.0 and the “Herbicidal rating ECHORC” value ([3]; 0.0625 kg/ha) was 6.0. The “Herbicidal rating ECHORC” value ([3]; 0.1250 kg/ha) was 7.0, the “Herbicidal rating ECHORC” value ([3]; 0.2500 kg/ha) was 9.0 and the “Preemergence herbicidal rating ORYSAT” value (ORYSAT (Rice, Tebonnet); rate 0.0156 kg/ha) was 0.0. For the same compound, the “Preemergence herbicidal rating ORYSAT” value (ORYSAT (Rice, Tebonnet); rate 0.0313 kg/ha) was 0.0, the “ORYSAT preemergence herbicidal rating” value (ORYSAT (Rice, Tebonnet); rate 0.0625 kg/ha) was 0.0 and the “ORYSAT preemergence herbicidal rating” value (ORYSAT (Rice, Tebonnet); rate 0.1250 kg/ha) was 2.0. For the same compound, the “ORYSAT preemergence herbicidal rating” value (ORYSAT (Rice, Tebonnet); rate 0.2500 kg/ha) was 5.0, the “Herbicidal rating ECHORC” value ([4]; rate 0.0313 kg/ha) was 4.0 and the “Herbicidal rating ECHORC” value ([4]; rate 0.0625 kg/ha) was 6.0. For the same compound, the “Herbicidal rating ECHORC” value ([4]; rate 0.1250 kg/ha) was 7.0, the “Herbicidal rating ECHORC” value ([4]; rate 0.2500 kg/ha) was 9.0 and the GALAP herbicidal rating (GALAP (Galium) [5]; rate 0.0156 kg/ha) was 2.0. The GALAP herbicidal rating (GALAP (Galium) [5]; rate 0.0313 kg/ha) was 5.0, the GALAP herbicidal rating (GALAP (Galium) [5]; rate 0.0625 kg/ha) was 7.0 and the GLXMAW herbicidal rating ([6]; rate 0.0156 kg/ha) was 7.0. The GLXMAW herbicidal rating ([6]; rate 0.0313 kg/ha) was 7.5, the GLXMAW herbicidal rating ([6]; rate 0.0625 kg/ha) was 8.0 and the “Preemergence herbicidal rating GALAP” value (GALAP (Galium) [7]; rate 0.0156 kg/ha) was 0.0. For the same compound, the “Preemergence herbicidal rating GALAP” value (GALAP (Galium) [7]; rate 0.0313 kg/ha) was 0.0, the “GALAP preemergence herbicidal rating” value (GALAP (Galium) [7]; rate 0.0625 kg/ha) was 0.0 and the “GALAP preemergence herbicidal rating” value (GALAP (Galium) [7]; rate 0.1250 kg/ha) was 0.0. The “GALAP preemergence herbicidal rating” value (GALAP (Galium) [7]; rate 0.2500 kg/ha) was 0.0, the “Herbicidal rating MOOVA” value (MOOVA (Monochoria); 0.0313 kg/ha) was 9.0 and the “Herbicidal rating MOOVA” value (MOOVA (Monochoria); 0.0625 kg/ha) was 9.0. The “Herbicidal rating MOOVA” value (MOOVA (Monochoria); 0.1250 kg/ha) was 9.0, the “Herbicidal rating MOOVA” value (MOOVA (Monochoria); 0.2500 kg/ha) was 9.0 and the TRZAWR herbicidal rating ([8]; rate 0.0156 kg/ha) was 2.0. For the same compound, the TRZAWR herbicidal rating ([8]; rate 0.0313 kg/ha) was 3.0, the TRZAWR herbicidal rating ([8]; rate 0.0625 kg/ha) was 3.0 and the CASOB herbicidal rating (CASOB (Sicklepod); rate 0.0156 kg/ha) was 0.0. For the same compound, the CASOB herbicidal rating (CASOB (Sicklepod); rate 0.0313 kg/ha) was 0.0 and the CASOB herbicidal rating (CASOB (Sicklepod); rate 0.0625 kg/ha) was 0.0.
